Laboratory results reported in ChEMBL document CHEMBL3137667, “[Drug-induced liver injury; fourteenth updated edition of the bibliographic database of liver injuries and related drugs]” (Gastroenterol Clin Biol, 2004).

Assays:
[1] = Highest frequency of moderate liver toxicity observed during clinical trials, expressed as a percentage. [column '% BIOL' in source]; details: human
[2] = Highest frequency of acute liver toxicity observed during clinical trials, expressed as a percentage. [column '% AIGUE' in source]; details: human
[3] = Times to onset, minimal and maximal, observed in the indexed observations. [column 'DELAI' in source]; details: human
[4] = Proposed mechanism(s) of liver damage. [column 'MEC' in source]; details: human
[5] = human, serum
[6] = human, serum; remark: listed apart in the source
[7] = human
[8] = human; remark: listed apart in the source
[9] = human; remark: listed apart in the source
[10] = human, serum, 4383 h
[11] = human; remark: listed apart in the source
[12] = human; remark: listed apart in the source
[13] = human; remark: listed apart in the source
[14] = human; remark: listed apart in the source
[15] = human; remark: listed apart in the source
[16] = human; remark: listed apart in the source
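For Hepatotoxicity (association with vascular disease) in this document: count of indexed literature references reporting vascular liver injury in humans, e.g. peliosis hepatitis, hepatic veno-occlusive disease or Budd-Chiari syndrome.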
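For Hepatotoxicity (benign tumour) in this document: value is a count of indexed literature references citing a benign tumour confirmed by histopathology.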
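For Hepatotoxicity (choleostasis) in this document: human cholestatic liver injury, shown by histopathology or by peak ALT or AST elevation over alkaline phosphatase ratio below 2, value counts indexed literature reports.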
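For Hepatotoxicity (chronic liver disease) in this document: chronic liver injury confirmed by histopathology or persistently raised serum aminotransferase activity beyond 6 months, value given as the count of indexed literature references.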
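For Hepatotoxicity (cirrhosis) in this document: value is a count of indexed literature references reporting cirrhosis confirmed by histopathology.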
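For Hepatotoxicity (cytolytic) in this document: human cytolytic liver injury, shown by histopathology or by a ratio above 5 of peak ALT or AST elevation to alkaline phosphatase elevation, value counts indexed references.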
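For Hepatotoxicity (granulomatous hepatitis) in this document: value is a count of indexed literature references reporting granulomatous liver disease confirmed by histopathology.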
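For Hepatotoxicity (malignant tumour) in this document: malignant tumour confirmed by histopathology, value gives the count of indexed literature references reporting it.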
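For Hepatotoxicity (severe hepatitis) in this document: human clinical data: severe hepatitis, meaning potentially life-threatening liver failure or clinically observed cases, the value counts how many indexed literature references report it.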
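For Hepatotoxicity (steatosis) in this document: steatosis confirmed by histopathology, value is the count of indexed references.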

SMILES | Hepatotoxicity (moderate) [1] [%] | Hepatotoxicity (acute) [2] [%] | Hepatotoxicity (time to onset) [3] | Hepatotoxicity (mechanism) [4] | Hepatotoxicity (moderate) [5] | Hepatotoxicity (acute) [6] | Hepatotoxicity (cytolytic) [7] | Hepatotoxicity (choleostasis) [8] | Hepatotoxicity (severe hepatitis) [9] | Hepatotoxicity (chronic liver disease) [10] | Hepatotoxicity (cirrhosis) [11] | Hepatotoxicity (granulomatous hepatitis) [12] | Hepatotoxicity (association with vascular disease) [13] | Hepatotoxicity (steatosis) [14] | Hepatotoxicity (malignant tumour) [15] | Hepatotoxicity (benign tumour) [16] | Hepatotoxicity (moderate) ([1]; Liver) [%] | Hepatotoxicity (acute) ([2]; Liver) [%] | Hepatotoxicity (severe hepatitis) ([9]; Liver)
CC1=C(C(=O)O)N2C(=O)[C@@H](NC(=O)[C@H](N)c3ccccc3)[C@H]2SC1 [CEPHALEXIN ANHYDROUS] | 4.8 | 0 | 1 week - 9 days | Allergic | 4 | 6 | 3 | 4 | 2 | 0 | 0 | 1 | 0 | 0 | 0 | 0 | – | – | –
O=C1CN=C(c2ccccc2Cl)c2cc([N+](=O)[O-])ccc2N1 [CLONAZEPAM] | – | – | 3 weeks - 4 months | Toxic Metabolite | 0 | 2 | 2 | 0 | – | 0 | 0 | 0 | 0 | 0 | 0 | 0 | 0 | 0 | 1
CN(C)/N=N/c1[nH]cnc1C(N)=O [DACARBAZINE] | 50 | 0 | 1 cure - 4 cures | Allergic, Toxic | 12 | 5 | 4 | 2 | 6 | 0 | 0 | 0 | 24 | 0 | 0 | 0 | – | – | –
CN(C)[C@@H]1C(O)=C(C(N)=O)C(=O)[C@@]2(O)C(O)=C3C(=O)c4c(O)ccc(Cl)c4[C@@H](O)[C@H]3C[C@@H]12 [DEMECLOCYCLINE] | 0 | 0 | 2 days - 2 months | Dose-dependant | 0 | 1 | 1 | 0 | 2 | 0 | 0 | 0 | 0 | 1 | 0 | 0 | – | – | –
CN[C@@H]1[C@H](O[C@H]2[C@H](O[C@H]3[C@H](O)[C@@H](O)[C@H](NC(=N)N)[C@@H](O)[C@@H]3NC(=N)N)O[C@@H](C)[C@]2(O)CO)O[C@@H](CO)[C@H](O)[C@H]1O [DIHYDROSTREPTOMYCIN] | 0 | 0 | < 1 days | Allergic | 0 | 1 | 1 | 0 | 0 | 0 | 0 | 0 | 0 | 0 | 0 | 0 | – | – | –
C[C@H](CCc1ccccc1)NC[C@H](O)c1ccc(O)c(C(N)=O)c1 [DILEVALOL] | 2 | 0 | 2 weeks | Allergic | 1 | 1 | 1 | 0 | 1 | 0 | 0 | 0 | 0 | 0 | 0 | 0 | – | – | –
Cc1c(N(C)CS(=O)(=O)[O-])c(=O)n(-c2ccccc2)n1C.[Na+] [DIPYRONE SODIUM] | 0 | 0 | 2 hours - 18 days | Allergic | 1 | 3 | 0 | 0 | 0 | 0 | 0 | 0 | 0 | 0 | 0 | 0 | – | – | –
O=C1Nc2ccc(Cl)cc2[C@@](C#CC2CC2)(C(F)(F)F)O1 [EFAVIRENZ] | 18.8 | 10.9 | 10 days - 4 weeks | Allergic | 2 | 8 | 8 | 2 | 4 | 0 | 0 | 0 | 0 | 0 | 0 | 0 | – | – | –
COc1cc(/C=C/C(=O)O)ccc1O [FERULATE] | 0 | 0 | 2 days - 5 years | Dose-dependant | 0 | 2 | 1 | 1 | 0 | 1 | 2 | 0 | 0 | 0 | 0 | 0 | – | – | –
Nc1nc(=O)[nH]cc1F [FLUCYTOSINE] | 55 | 2 | 2 weeks - 2 months | Dose-dependant | 22 | 5 | 3 | 3 | 2 | 0 | 0 | 0 | 0 | 0 | 0 | 0 | – | – | –
CC1CCc2cc(F)cc3c(=O)c(C(=O)O)cn1c23 (stereo not drawn) [FLUMEQUINE] | 0 | 0 | 24 days | Allergic | 0 | 0 | 0 | 0 | 0 | 0 | 0 | 1 | 0 | 0 | 0 | 0 | – | – | –
NCC1(CC(=O)O)CCCCC1 [GABAPENTIN] | 2.4 | 2.4 | 9 days - 4 months | Allergic | 2 | 5 | 1 | 3 | 0 | 0 | 0 | 0 | 0 | 1 | 0 | 0 | – | – | –
Cc1ccc(S(=O)(=O)NC(=O)NN2CC3CCCC3C2)cc1 (stereo not drawn) [GLICLAZIDE] | 0 | 0 | 4 weeks - 5 weeks | Allergic | 1 | 3 | 2 | 1 | 0 | 0 | 0 | 0 | 0 | 0 | 0 | 0 | – | – | –
